Organism: Rattus norvegicus
Experiment: DrugMatrix - Regimen: Daily Repeat
Type: toxicity, organism-based, Sprague-Dawley
Set-up: regimen Daily Repeat, gender Male, age 6-8 weeks
Conditions: in vivo, iv, vehicle 100 % SALINE; for ABSOLUTE BASOPHIL / ABSOLUTE EOSINOPHIL / ABSOLUTE LYMPHOCYTE / ABSOLUTE MONOCYTE / ABSOLUTE SEGMENTED NEUTROPHIL / BASOPHIL / EOSINOPHIL / ERYTHROCYTE COUNT / HEMATOCRIT / HEMOGLOBIN / LEUKOCYTE COUNT / LYMPHOCYTE / MEAN CORPUSCULAR HEMOGLOBIN / MEAN CORPUSCULAR HEMOGLOBIN CONCENTRATION / MEAN CORPUSCULAR VOLUME / MONOCYTE / NEUTROPHIL / NUCLEATED RED BLOOD CELLS: tissue Blood; for ALANINE AMINOTRANSFERASE / ALKALINE PHOSPHATASE / ASPARTATE AMINOTRANSFERASE / BLOOD UREA NITROGEN / CARBON DIOXIDE / CHOLESTEROL / CREATINE PHOSPHOKINASE / CREATININE / GLUCOSE / LACTATE DEHYDROGENASE / LIPASE / SODIUM / TOTAL BILIRUBIN / TOTAL PROTEIN / URIC ACID: tissue Plasma
[1] = 3 mg/kg, 120 h, dose level High, time 5 day
[2] = […], 72 h, dose 0.65 mg/Kg, dose level Low, time 3 day
[3] = […], 120 h, dose 0.65 mg/Kg, dose level Low, time 5 day

Compound: COc1cccc2c1C(=O)c1c(O)c3c(c(O)c1C2=O)C[C@@](O)(C(=O)CO)C[C@@H]3O[C@H]1C[C@H](N)[C@H](O)[C@H](C)O1 [DOXORUBICIN]
- ABSOLUTE BASOPHIL [1]: 0 CELLS/uL
- ABSOLUTE EOSINOPHIL [1]: 17.33 CELLS/uL
- ABSOLUTE LYMPHOCYTE [1]: 1693 CELLS/uL
- ABSOLUTE MONOCYTE [1]: 0 CELLS/uL
- ABSOLUTE SEGMENTED NEUTROPHIL [1]: 589.67 CELLS/uL
- BASOPHIL [1]: 0%
- EOSINOPHIL [1]: 0.67%
- ERYTHROCYTE COUNT [1]: 5.12 x10E6/uL
- HEMATOCRIT [1]: 32.6%
- HEMOGLOBIN [1]: 12.83 G/DL
- LEUKOCYTE COUNT [1]: 2.3 x10E3/uL
- LYMPHOCYTE [1]: 74%
- MEAN CORPUSCULAR HEMOGLOBIN [1]: 25.07 pg
- MEAN CORPUSCULAR HEMOGLOBIN CONCENTRATION [1]: 39.4 G/DL
- MEAN CORPUSCULAR VOLUME [1]: 63.73 fL
- MONOCYTE [1]: 0%
- NEUTROPHIL [1]: 25.33%
- NUCLEATED RED BLOOD CELLS [1]: 0 /100WBC
- ALANINE AMINOTRANSFERASE [1]: 34 u/L
- ALKALINE PHOSPHATASE [1]: 189.67 u/L
- ASPARTATE AMINOTRANSFERASE [1]: 86.33 u/L
- BLOOD UREA NITROGEN [1]: 12.33 mg/dL
- CARBON DIOXIDE [1]: 25.67 mmol/L
- CHOLESTEROL [1]: 95.67 mg/dL
- CREATINE PHOSPHOKINASE [1]: 299.33 u/L
- CREATININE [1]: 0.1 mg/dL
- GLUCOSE [1]: 147.67 mg/dL
- LACTATE DEHYDROGENASE [1]: 73.33 u/L
- LIPASE [1]: 8.33 u/L
- SODIUM [1]: 144.9 MEQ/L
- TOTAL BILIRUBIN [1]: 0.1 mg/dL
- TOTAL PROTEIN [1]: 5.77 G/DL
- URIC ACID [1]: 0.4 mg/dL
- ABSOLUTE BASOPHIL [2]: 0 CELLS/uL
- ABSOLUTE EOSINOPHIL [2]: 0 CELLS/uL
- ABSOLUTE LYMPHOCYTE [2]: 6184 CELLS/uL
- ABSOLUTE SEGMENTED NEUTROPHIL [2]: 275.33 CELLS/uL
- BASOPHIL [2]: 0%
- EOSINOPHIL [2]: 0%
- ERYTHROCYTE COUNT [2]: 5.13 x10E6/uL
- HEMATOCRIT [2]: 33%
- HEMOGLOBIN [2]: 13.03 G/DL
- LEUKOCYTE COUNT [2]: 6.5 x10E3/uL
- LYMPHOCYTE [2]: 94.67%
- MEAN CORPUSCULAR HEMOGLOBIN [2]: 25.47 pg
- MEAN CORPUSCULAR HEMOGLOBIN CONCENTRATION [2]: 39.5 G/DL
- MEAN CORPUSCULAR VOLUME [2]: 64.47 fL
- MONOCYTE [2]: 0.67%
- NEUTROPHIL [2]: 4.67%
- NUCLEATED RED BLOOD CELLS [2]: 0 /100WBC
- ALANINE AMINOTRANSFERASE [2]: 48.33 u/L
- ALKALINE PHOSPHATASE [2]: 370 u/L
- ASPARTATE AMINOTRANSFERASE [2]: 79.33 u/L
- BLOOD UREA NITROGEN [2]: 12.33 mg/dL
- CARBON DIOXIDE [2]: 30.33 mmol/L
- CHOLESTEROL [2]: 68.33 mg/dL
- CREATINE PHOSPHOKINASE [2]: 280.67 u/L
- CREATININE [2]: 0.29 mg/dL
- GLUCOSE [2]: 179 mg/dL
- LACTATE DEHYDROGENASE [2]: 81.33 u/L
- LIPASE [2]: 10.33 u/L
- SODIUM [2]: 144.23 MEQ/L
- TOTAL BILIRUBIN [2]: 0.1 mg/dL
- TOTAL PROTEIN [2]: 5.93 G/DL
- URIC ACID [2]: 0.87 mg/dL
- ABSOLUTE BASOPHIL [3]: 0 CELLS/uL
- ABSOLUTE EOSINOPHIL [3]: 49.33 CELLS/uL
- ABSOLUTE LYMPHOCYTE [3]: 5081.33 CELLS/uL
- ABSOLUTE MONOCYTE [3]: 14 CELLS/uL
- ABSOLUTE SEGMENTED NEUTROPHIL [3]: 188.67 CELLS/uL
- BASOPHIL [3]: 0%
- EOSINOPHIL [3]: 1%
- ERYTHROCYTE COUNT [3]: 5.28 x10E6/uL
- HEMATOCRIT [3]: 34.1%
- HEMOGLOBIN [3]: 13.37 G/DL
- LEUKOCYTE COUNT [3]: 5.33 x10E3/uL
- LYMPHOCYTE [3]: 95%
- MEAN CORPUSCULAR HEMOGLOBIN [3]: 25.3 pg
- MEAN CORPUSCULAR HEMOGLOBIN CONCENTRATION [3]: 39.17 G/DL
- MEAN CORPUSCULAR VOLUME [3]: 64.67 fL
- MONOCYTE [3]: 0.33%
- NEUTROPHIL [3]: 3.67%
- NUCLEATED RED BLOOD CELLS [3]: 0 /100WBC
- ALANINE AMINOTRANSFERASE [3]: 34.67 u/L
- ALKALINE PHOSPHATASE [3]: 365.33 u/L
- ASPARTATE AMINOTRANSFERASE [3]: 74.67 u/L
- BLOOD UREA NITROGEN [3]: 14 mg/dL
- CARBON DIOXIDE [3]: 26 mmol/L
- CHOLESTEROL [3]: 68.67 mg/dL
- CREATINE PHOSPHOKINASE [3]: 222 u/L
- CREATININE [3]: 0.14 mg/dL
- GLUCOSE [3]: 156 mg/dL
- LACTATE DEHYDROGENASE [3]: 60 u/L
- LIPASE [3]: 9 u/L
- SODIUM [3]: 145.47 MEQ/L
- TOTAL BILIRUBIN [3]: 0.1 mg/dL
- TOTAL PROTEIN [3]: 5.63 G/DL
- URIC ACID [3]: 0.23 mg/dL

— ChEMBL document CHEMBL3885881, “DrugMatrix”
